Measurements reported in PubChem BioAssay AID1259407 (Chemical Carcinogenesis Research Information System (CCRIS), 2018).
Activity calls are given as the source filed them. No rule for the calls is given here.

Tested on: CCRIS mutagenicity, Ames/micronucleus/aberration tests
Assay: CCRIS mutagenicity studies
[1] = Test System: AMES SALMONELLA TYPHIMURIUM, Strain/Indicator: TA98, Metabolic Activation: NONE, Method: STANDARD PLATE
[2] = Test System: AMES SALMONELLA TYPHIMURIUM, Strain/Indicator: TA100 (NR), Metabolic Activation: NONE, Method: STANDARD PLATE
[3] = Test System: AMES SALMONELLA TYPHIMURIUM, Strain/Indicator: TA100, Metabolic Activation: NONE, Method: STANDARD PLATE
[4] = Test System: AMES SALMONELLA TYPHIMURIUM, Strain/Indicator: TA100, Metabolic Activation: RAT LIVER S-9, AROCLOR 1254, Method: STANDARD PLATE
[5] = Test System: AMES SALMONELLA TYPHIMURIUM, Strain/Indicator: TA1537, Metabolic Activation: NONE, Method: STANDARD PLATE
[6] = Test System: AMES SALMONELLA TYPHIMURIUM, Strain/Indicator: TA98, Metabolic Activation: NONE, Method: PREINCUBATION
[7] = Test System: AMES SALMONELLA TYPHIMURIUM, Strain/Indicator: TA100, Metabolic Activation: NONE, Method: PREINCUBATION

Q: What does the source list for `Cc1ccc(/C=C/c2ccc([N+](=O)[O-])cc2)cc1`?
A: mutagenic call (Test System: AMES SALMONELLA TYPHIMURIUM, Strain/Indicator: TA98 (NR), Metabolic Activation: NONE, Method: STANDARD PLATE): inactive; negative; mutagenic call (Test System: AMES SALMONELLA TYPHIMURIUM, Strain/Indicator: TA98 (NR), Metabolic Activation: S-9, Method: STANDARD PLATE): active; positive; mutagenic call [1]: active; positive; mutagenic call (Test System: AMES SALMONELLA TYPHIMURIUM, Strain/Indicator: TA98, Metabolic Activation: RAT, LIVER, S-9, AROCLOR, Method: STANDARD PLATE): active; positive; mutagenic call (Test System: AMES SALMONELLA TYPHIMURIUM, Strain/Indicator: TA98, Metabolic Activation: S-9, Method: STANDARD PLATE): active; positive; mutagenic call [2]: inactive; negative; mutagenic call (Test System: AMES SALMONELLA TYPHIMURIUM, Strain/Indicator: TA100 (NR), Metabolic Activation: S-9, Method: STANDARD PLATE): active; positive; mutagenic call [3]: active; positive; mutagenic call (Test System: AMES SALMONELLA TYPHIMURIUM, Strain/Indicator: TA100, Metabolic Activation: RAT, LIVER, S-9, AROCLOR, Method: STANDARD PLATE): active; positive; mutagenic call (Test System: AMES SALMONELLA TYPHIMURIUM, Strain/Indicator: TA100, Metabolic Activation: S-9, Method: STANDARD PLATE): active; positive

Q: How did the mutagenic call [1] turn out when `Nc1ccc2[nH]c3ccccc3c2c1` was run?
A: Its mutagenic call is “inactive; negative”.

Q: And the mutagenic call (Test System: AMES SALMONELLA TYPHIMURIUM, Strain/Indicator: TA98, Metabolic Activation: RAT LIVER S-9, AROCLOR 1254, Method: STANDARD PLATE)?
A: The mutagenic call was “active; positive”.

Q: And the mutagenic call (Test System: AMES SALMONELLA TYPHIMURIUM, Strain/Indicator: TA98, Metabolic Activation: RAT, LIVER, S-9, PHENOBARBITAL, Method: STANDARD PLATE)?
A: The mutagenic call was “active; positive”.

Q: What about the mutagenic call [3] of the same molecule?
A: The mutagenic call was “inactive; negative”.

Q: And the mutagenic call [4]?
A: Its mutagenic call is “inactive; negative”.

Q: And the mutagenic call (Test System: AMES SALMONELLA TYPHIMURIUM, Strain/Indicator: TA100, Metabolic Activation: RAT, LIVER, S-9, PHENOBARBITAL, Method: STANDARD PLATE)?
A: The mutagenic call was “inactive; negative”.

Q: And the mutagenic call [5]?
A: The mutagenic call was “inactive; negative”.

Q: What about the mutagenic call (Test System: AMES SALMONELLA TYPHIMURIUM, Strain/Indicator: TA1537, Metabolic Activation: RAT, LIVER, S-9, PHENOBARBITAL, Method: STANDARD PLATE) of the same molecule?
A: The mutagenic call was “inactive; negative”.

Q: And the mutagenic call (Test System: AMES SALMONELLA TYPHIMURIUM, Strain/Indicator: TA1538, Metabolic Activation: NONE, Method: STANDARD PLATE)?
A: Its mutagenic call is “inactive; negative”.

Q: What about the mutagenic call (Test System: AMES SALMONELLA TYPHIMURIUM, Strain/Indicator: TA1538, Metabolic Activation: RAT, LIVER, S-9, PHENOBARBITAL, Method: STANDARD PLATE) of the same molecule?
A: The mutagenic call was “active; positive”.

Q: And the mutagenic call (Test System: AMES SALMONELLA TYPHIMURIUM, Strain/Indicator: TA1977, Metabolic Activation: NONE, Method: STANDARD PLATE)?
A: The mutagenic call was “inactive; negative”.

Q: And the mutagenic call (Test System: AMES SALMONELLA TYPHIMURIUM, Strain/Indicator: TA1977, Metabolic Activation: RAT, LIVER, S-9, PHENOBARBITAL, Method: STANDARD PLATE)?
A: The mutagenic call was “inactive; negative”.

Q: Which results are given for `CCC1(CC(=O)O)OCCc2c1[nH]c1c(C)cccc21` (stereo unspecified)?
A: mutagenic call [1]: inactive; negative; mutagenic call (Test System: AMES SALMONELLA TYPHIMURIUM, Strain/Indicator: TA98, Metabolic Activation: RAT, LIVER, S-9, Method: STANDARD PLATE): inactive; negative; mutagenic call [3]: inactive; negative; mutagenic call (Test System: AMES SALMONELLA TYPHIMURIUM, Strain/Indicator: TA100, Metabolic Activation: RAT, LIVER, S-9, Method: STANDARD PLATE): inactive; negative; mutagenic call (Test System: AMES SALMONELLA TYPHIMURIUM, Strain/Indicator: TA1535, Metabolic Activation: NONE, Method: STANDARD PLATE): inactive; negative; mutagenic call (Test System: AMES SALMONELLA TYPHIMURIUM, Strain/Indicator: TA1535, Metabolic Activation: RAT, LIVER, S-9, Method: STANDARD PLATE): inactive; negative; mutagenic call [5]: inactive; negative; mutagenic call (Test System: AMES SALMONELLA TYPHIMURIUM, Strain/Indicator: TA1537, Metabolic Activation: RAT, LIVER, S-9, Method: STANDARD PLATE): inactive; negative; mutagenic call (Test System: E. COLI, Strain/Indicator: WP2 UVRA, Metabolic Activation: NONE, Method: STANDARD PLATE): inactive; negative; mutagenic call (Test System: E. COLI, Strain/Indicator: WP2 UVRA, Metabolic Activation: RAT, LIVER, S-9, Method: STANDARD PLATE): inactive; negative

Q: How did the mutagenic call [5] turn out when `ClCc1c2ccccc2c(CCl)c2ccccc12` was run?
A: The mutagenic call was “active; positive”.

Q: With `COc1c(C(C)(C)C)cc([N+](=O)[O-])c(C)c1[N+](=O)[O-]` as the molecule, how does the mutagenic call (Test System: AMES SALMONELLA TYPHIMURIUM, Strain/Indicator: TA98, Metabolic Activation: HAMSTER, LIVER, S-9, AROCLOR 1254 (10%), Method: PREINCUBATION) read?
A: Its mutagenic call is “inactive; negative”.

Q: And the mutagenic call [6]?
A: Its mutagenic call is “inactive; negative”.

Q: What about the mutagenic call [1] of the same molecule?
A: The mutagenic call was “inactive; negative”.

Q: What about the mutagenic call (Test System: AMES SALMONELLA TYPHIMURIUM, Strain/Indicator: TA98, Metabolic Activation: RAT, LIVER, AROCLOR 1254, Method: STANDARD PLATE) of the same molecule?
A: Its mutagenic call is “inactive; negative”.

Q: What about the mutagenic call (Test System: AMES SALMONELLA TYPHIMURIUM, Strain/Indicator: TA98, Metabolic Activation: RAT, LIVER, S-9, AROCLOR 1254 (10%), Method: PREINCUBATION) of the same molecule?
A: The mutagenic call was “inactive; negative”.

Q: What about the mutagenic call (Test System: AMES SALMONELLA TYPHIMURIUM, Strain/Indicator: TA98, Metabolic Activation: RAT, LIVER, S-9, AROCLOR 1254, Method: PREINCUBATION) of the same molecule?
A: The mutagenic call was “inactive; negative”.

Q: What about the mutagenic call (Test System: AMES SALMONELLA TYPHIMURIUM, Strain/Indicator: TA98, Metabolic Activation: RAT, LIVER, S-9, AROCLOR 1254, Method: STANDARD PLATE) of the same molecule?
A: Its mutagenic call is “inactive; negative”.

Q: What about the mutagenic call [2] of the same molecule?
A: Its mutagenic call is “inactive; negative”.

Q: And the mutagenic call (Test System: AMES SALMONELLA TYPHIMURIUM, Strain/Indicator: TA100(NR), Metabolic Activation: RAT LIVER S-9, AROCLOR 1254, Method: STANDARD PLATE)?
A: Its mutagenic call is “inactive; negative”.

Q: And the mutagenic call (Test System: AMES SALMONELLA TYPHIMURIUM, Strain/Indicator: TA100, Metabolic Activation: HAMSTER, LIVER, S-9, AROCLOR 1254 (10%), Method: PREINCUBATION)?
A: The mutagenic call was “inactive; negative”.

Q: And the mutagenic call [7]?
A: The mutagenic call was “inactive; negative”.

Q: What about the mutagenic call [3] of the same molecule?
A: The mutagenic call was “inactive; negative”.

Q: And the mutagenic call [4]?
A: Its mutagenic call is “active; positive”.

Q: And the mutagenic call (Test System: AMES SALMONELLA TYPHIMURIUM, Strain/Indicator: TA100, Metabolic Activation: RAT, LIVER, S-9, AROCLOR 1254 (10%), Method: PREINCUBATION)?
A: Its mutagenic call is “inactive; negative”.

Q: And the mutagenic call (Test System: AMES SALMONELLA TYPHIMURIUM, Strain/Indicator: TA100, Metabolic Activation: RAT, LIVER, S-9, AROCLOR 1254, Method: PREINCUBATION)?
A: Its mutagenic call is “active; positive”.

Q: And the mutagenic call (Test System: AMES SALMONELLA TYPHIMURIUM, Strain/Indicator: TA100, Metabolic Activation: RAT, LIVER, S-9, AROCLOR 1254, Method: STANDARD PLATE)?
A: Its mutagenic call is “active; positive”.

Q: And the mutagenic call (Test System: AMES SALMONELLA TYPHIMURIUM, Strain/Indicator: TA1535, Metabolic Activation: HAMSTER, LIVER, S-9, AROCLOR 1254 (10%), Method: PREINCUBATION)?
A: The mutagenic call was “inactive; negative”.

Q: What about the mutagenic call (Test System: AMES SALMONELLA TYPHIMURIUM, Strain/Indicator: TA1535, Metabolic Activation: NONE, Method: PREINCUBATION) of the same molecule?
A: The mutagenic call was “inactive; negative”.

Q: What about the mutagenic call (Test System: AMES SALMONELLA TYPHIMURIUM, Strain/Indicator: TA1535, Metabolic Activation: RAT, LIVER, S-9, AROCLOR 1254 (10%), Method: PREINCUBATION) of the same molecule?
A: Its mutagenic call is “inactive; negative”.

Q: And the mutagenic call (Test System: AMES SALMONELLA TYPHIMURIUM, Strain/Indicator: TA1537, Metabolic Activation: HAMSTER, LIVER, S-9, AROCLOR 1254 (10%), Method: PREINCUBATION)?
A: Its mutagenic call is “inactive; negative”.

Q: What about the mutagenic call (Test System: AMES SALMONELLA TYPHIMURIUM, Strain/Indicator: TA1537, Metabolic Activation: NONE, Method: PREINCUBATION) of the same molecule?
A: The mutagenic call was “inactive; negative”.

Q: And the mutagenic call (Test System: AMES SALMONELLA TYPHIMURIUM, Strain/Indicator: TA1537, Metabolic Activation: RAT, LIVER, S-9, AROCLOR 1254 (10%), Method: PREINCUBATION)?
A: The mutagenic call was “inactive; negative”.

Q: How did the mutagenic call [6] turn out when `CC(C)(N=O)[N+](=O)[O-]` was run?
A: The mutagenic call was “active; positive”.

Q: What about the mutagenic call (Test System: AMES SALMONELLA TYPHIMURIUM, Strain/Indicator: TA98, Metabolic Activation: RAT, LIVER, S-9, AROCLOR, Method: PREINCUBATION) of the same molecule?
A: Its mutagenic call is “inactive; negative”.

Q: And the mutagenic call [7]?
A: Its mutagenic call is “inactive; negative”.

Q: What about the mutagenic call (Test System: AMES SALMONELLA TYPHIMURIUM, Strain/Indicator: TA100, Metabolic Activation: RAT, LIVER, S-9, AROCLOR, Method: PREINCUBATION) of the same molecule?
A: Its mutagenic call is “inactive; negative”.

Q: And the mutagenic call (Test System: AMES SALMONELLA TYPHIMURIUM, Strain/Indicator: TA102, Metabolic Activation: NONE, Method: PREINCUBATION)?
A: Its mutagenic call is “inactive; negative”.

Q: And the mutagenic call (Test System: AMES SALMONELLA TYPHIMURIUM, Strain/Indicator: TA102, Metabolic Activation: RAT, LIVER, S-9, AROCLOR, Method: PREINCUBATION)?
A: The mutagenic call was “inactive; negative”.
